Laboratory results published in article PMC12277590 (Drug Design, Development and Therapy, 2025).
Read-outs that look alike come from different tables or passages of the source.

How the values were obtained:
[1] = oral intake in human; cited from earlier work
human UGT1A9 = details: ref 14; cited from earlier work
[2] = cited from earlier work
human UGT1A1 = details: ref 14; cited from earlier work
plasma proteins = details: cited from earlier work
UGT1A3 = details: ref 14; cited from earlier work
[3] = format: in vivo, male Sprague-Dawley rats; details: rats
BCRP = details: read-out: IC50, BCRP; cited from earlier work
MRP2 = details: read-out: IC50, MRP2; cited from earlier work
P-gp = details: read-out: IC50, P-gp; cited from earlier work
CYP2C19 = details: in vitro; cited from earlier work
[4] = cited from earlier work; remark: listed apart in the source
[5] = markedly low water solubility and high permeability; cited from earlier work
[6] = oral sorafenib in humans, mass balance
[7] = after multiple doses of telmisartan vs sorafenib alone
[8] = after multiple doses of donafenib vs telmisartan alone
[9] = after multiple doses of telmisartan vs donafenib alone

CNC(=O)c1cc(Oc2ccc(NC(=O)Nc3ccc(Cl)c(C(F)(F)F)c3)cc2)ccn1 [Sorafenib]
time to maximum plasma concentration [1]: about 3 hours
inhibition of human UGT1A9 (human UGT1A9): potent inhibitor
drug eliminated as oxidative metabolites [2, 6]: less than 5%
drug eliminated as sorafenib-β-D-glucuronide (SG) [2, 6]: 15%
inhibition of human UGT1A1 (human UGT1A1): potent inhibitor
binding to plasma proteins (plasma proteins; sorafenib, human): more than 99%
inhibitory effects on UGT1A3 (UGT1A3): no inhibitory effects
decrease in CLz/F of sorafenib [3, 7]: 46.0%
decrease in Vz/F of sorafenib [3, 7]: 50.4%
increase in AUC0-t of sorafenib [3, 7]: 77.7%
increase in AUC0-∞ of sorafenib [3, 7]: 75.8%
increase in Cmax of sorafenib [3, 7]: 60.9%

CCCc1nc2c(C)cc(-c3nc4ccccc4n3C)cc2n1Cc1ccc(-c2ccccc2C(=O)O)cc1 [Telmisartan]
IC50 (BCRP): 6.7 µM
IC50 (MRP2): 38.2 µM
IC50 (P-gp): 12.4 µM
binding to plasma proteins (plasma proteins; telmisartan): 99.5%
inhibition of CYP2C19 (CYP2C19): minor inhibition
proportion metabolized to acyl-glucuronides by UGT1A3 ([4]; ref 25,27): 11%
half-life for elimination ([4]; ref 26): about 24 hours
proportion metabolized to acyl-glucuronides by UGT1A3 ([4]; ref 34): 11%
decrease in CLz/F of telmisartan [3, 8]: 57.3%
decrease in Vz/F of telmisartan [3, 8]: 45.6%
increase in AUC0-∞ of telmisartan [3, 8]: 0.98 fold
effect of sorafenib on the pharmacokinetic parameters of telmisartan ([3]; multiple doses of sorafenib vs telmisartan alone): does not significantly affect
BCS class [5]: class II

[2H]C([2H])([2H])NC(=O)c1cc(Oc2ccc(NC(=O)Nc3ccc(Cl)c(C(F)(F)F)c3)cc2)ccn1 [Donafenib]
N-oxidation (M2), % of total drug ([2]; ref 41): 24.76%
glucuronidation (M7), % of total drug ([2]; ref 41): 4.82%
decrease in t1/2 of donafenib [3, 9]: 35.0%
increase in CLz/F of donafenib [3, 9]: 87.5%
